# Laboratory results published in PubChem BioAssay AID1996.
# Conditions: buffer; pH 7.4; 200.0 µM
row,SMILES,solubility kinetic
1,Cc1onc(-c2ccccc2Cl)c1C(=O)N1CCCCCC1,> 47.8 µg/mL
2,CS(=O)(=O)N1CCC(C(=O)Nc2ccc(F)c(Cl)c2)CC1,> 50.2 µg/mL
3,N#CC1(Nc2cccc(Br)c2)C(=O)Nc2ccccc21 (stereo not given),> 49.2 µg/mL
4,COc1ccc(-c2csc3ncn(Cc4ccccc4)c(=O)c23)cc1,1.4 µg/mL
5,Cc1cccc(NC(=O)CN2C(=O)NC3(CCCC3)C2=O)n1,> 45.3 µg/mL
6,Cc1cc(C)cc(OCC(=O)O/N=C(\N)c2ccccc2Cl)c1,13.3 µg/mL
7,CCOC(=O)[C@H](CCc1ccccc1)N[C@H]1CCc2ccccc2N(CC(=O)O)C1=O.Cl,> 69.1 µg/mL
8,COc1ccc(OC(=O)NCCc2ccccc2)cc1,24.3 µg/mL
9,CC(=O)c1cccc(NC(=O)Nc2nc(C)cc(C)n2)c1,1.8 µg/mL
10,Cc1cccnc1NC1CCCCC1,8.1 µg/mL
11,C[C@H](NC(N)=O)C(=O)OCC(=O)NCc1cccs1,> 42.8 µg/mL
12,O=C1CCc2cc(S(=O)(=O)Nc3ccccc3)ccc2N1,> 45.4 µg/mL
13,O=C(O)C1C2C=CC(O2)C1C(=O)Nc1cccc(C(F)(F)F)c1 (stereo not given),> 49.1 µg/mL
14,Cc1csc(NC(=O)CSc2nncs2)n1,> 40.9 µg/mL
15,N#CC(C#N)=CN=c1ccn(Cc2ccc(Cl)cc2Cl)cc1,1.4 µg/mL
16,O=C(O)Cc1ccc(NCc2ccccc2Cl)cc1,28 µg/mL
17,N#CCSc1ccc(-c2nc3ccccc3[nH]2)cn1,17 µg/mL
18,O=C(NNC(=O)C12CC3CC(CC(C3)C1)C2)c1cccc([N+](=O)[O-])c1,> 51.5 µg/mL
19,CN(C)c1ccc(NC(=O)Nc2csc3ccccc23)cc1,0.7 µg/mL
20,c1ccc2nc(SCc3cn4ccccc4n3)cnc2c1,> 43.9 µg/mL
21,CC(=O)N/C(=C\c1ccccc1)C(=O)OCc1ccc(F)cc1,43.4 µg/mL
22,CC(C)(C)NC(=O)NC(=O)COC(=O)Cc1c(F)cccc1Cl,15.6 µg/mL
23,O=S(=O)(Nc1ccon1)c1ccc(Br)cc1,32.2 µg/mL
24,O=S(=O)(c1cccc2cccnc12)N1CCCCC1,> 41.5 µg/mL

row,SMILES,solubility kinetic
1,CC(NC(=O)CN1CCN(Cc2cccc(F)c2)CC1)c1ccccc1 (stereo not given),> 53.3 µg/mL
2,COC(=O)c1cc(OC)c(OC)cc1NC(=O)c1csc(C)c1,< 0.7 µg/mL
3,O=C(CCSCc1ccc(Cl)cc1)NCc1ccco1,39.5 µg/mL
4,CC1CCN(C(=O)CC#N)CC1,> 24.9 µg/mL
5,CC(NC(=O)Nc1ccccc1Cl)c1ccc2c(c1)OCO2 (stereo not given),< 0.3 µg/mL
6,CC(C)(C)CC(=O)NC(=S)NCc1ccccc1,1.7 µg/mL
7,NNC(=O)c1ccc(COCC(F)(F)C(F)F)cc1,> 42 µg/mL
8,Cc1ccccc1C(=O)OC(C)CN1CCN(C)CC1.Cl (stereo not given),> 46.9 µg/mL
9,COc1cc2c(cc1OC)CN(CC(=O)NC(=O)NC(C)(C)C)CC2,45.9 µg/mL
10,COc1ccc(OC)c(S(=O)(=O)NCCCc2ccccc2)c1,27.4 µg/mL
11,O=C(Cc1ccccc1)c1c[nH]c(C(=O)NCc2ccncc2)c1,6.1 µg/mL
12,Cc1ccc(S(=O)(=O)NC2CCCCCCC2)cc1,24.3 µg/mL
13,CCOc1ccc(CN2CCSCC2)cc1,18.5 µg/mL
14,Cc1cccc(N2CCN(S(=O)(=O)c3ccc(Cl)nc3)CC2C)c1 (stereo not given),3.6 µg/mL
15,O=C1CSCC(=O)N1Cc1ccc(Cl)cc1Cl,38.2 µg/mL
16,CC(C)c1ccc(Nc2nc(Cl)nc(NCc3ccco3)n2)cc1,0.6 µg/mL
17,CN(C(=O)CSc1nc2ccccc2c(=O)n1-c1ccc(F)cc1F)C1CCS(=O)(=O)C1 (stereo not given),> 71.9 µg/mL
18,CC(=O)NC(=S)Nc1ccccc1F,> 31.8 µg/mL
19,Cc1cc(NC(=O)CC(C)C)c(=O)n(Cc2cccc(F)c2)c1,43.7 µg/mL
20,COc1ccc(NC(=S)NC2CCCC2)c(OC)c1,> 42.1 µg/mL
21,O=C(CN1C(=O)c2ccccc2S1(=O)=O)N1CCCCC1,> 46.3 µg/mL
22,CCOC(=O)c1[nH]cnc1C(=O)Nc1ccc([N+](=O)[O-])cc1,5 µg/mL
23,Cc1nn(-c2ccccc2)c2nc(N)c(C(N)=O)cc12,> 40.1 µg/mL
24,COC(=O)c1cn(C(=O)c2cccc3ccccc23)c2ccccc12,< 0.7 µg/mL

row,SMILES,solubility kinetic
1,COc1ccc(-c2cc(C(=O)N3CCCCCC3)no2)cc1,4 µg/mL
2,CCOc1ccc(Cn2cc(F)c(=O)[nH]c2=O)cc1,> 39.6 µg/mL
3,O=C(Nc1ccccc1C(=O)Nc1ccccc1)c1ccccc1Br,0.7 µg/mL
4,O=C(CNC(=O)c1ccc(C(F)(F)F)cc1)NC1CC1,> 42.9 µg/mL
5,O=S(=O)(NCCc1cccs1)c1ccc(Br)cc1,36.3 µg/mL
6,O=C(Nc1ccc(NC(=O)c2cccs2)cc1)c1cccs1,0.9 µg/mL
7,CCOC(=O)N1CCN(C(=O)c2ccc3ccccc3c2)CC1,> 46.9 µg/mL
8,N#C/C=C/N1CCN(C(=O)c2ccco2)CC1,> 34.7 µg/mL
9,O=C(OC1CCOC1=O)c1ccc(N2CCCC2)c([N+](=O)[O-])c1 (stereo not given),> 48 µg/mL
10,CN(C)/C=C/C(=O)c1ccc(-n2cccc2)cc1,> 36 µg/mL
11,CC(C)N(Cc1nc(-c2ccc3c(c2)OCO3)no1)CC1CCC(=O)N1 (stereo not given),37.3 µg/mL
12,COc1cc(CNc2nc3ccccc3s2)cc(OC)c1OC,48.4 µg/mL
13,NS(=O)(=O)c1ccc(CNc2ccc3ccccc3n2)cc1,12.8 µg/mL
14,O=C(/C=C/c1cccc(F)c1)NCc1ccc2c(c1)OCO2,3.3 µg/mL
15,COc1ccc(CCC(=O)NC(C)C2CCCO2)cc1 (stereo not given),> 41.6 µg/mL
16,CCn1c(=O)c(C(=O)Nc2ccc(C)cc2)c(O)c2ccccc21,< 0.3 µg/mL
17,Cc1ccc(NC(=O)CCN2C(=O)c3ccccc3C2=O)cc1,8.9 µg/mL
18,CC(=O)Nc1ccc(NC(=O)CC(C)n2ccnc2)cc1 (stereo not given),40.8 µg/mL
19,CN1CCN(c2oc(-c3ccccc3)nc2S(=O)(=O)c2ccccc2)CC1,1.4 µg/mL
20,Cc1oc(-c2cccc(C(F)(F)F)c2)nc1CN1CCOCC1,44.3 µg/mL
21,CC(=O)c1ccc(NC(=S)NC(=O)/C=C/c2ccco2)cc1,1.4 µg/mL
22,CC1(C)COC2(OC1)C(=O)Nc1ccccc12,> 35 µg/mL
23,Cc1ccc2[nH]c(C(=O)Nc3ccc(F)cc3)cc2c1,< 0.3 µg/mL
24,CCc1ccc(NC(=O)CCc2nc3ccccc3[nH]2)cc1,0.7 µg/mL

row,SMILES,solubility kinetic
1,Clc1ccc(-c2csc(N3CCCCCC3)n2)cc1,< 0.3 µg/mL
2,CC1(C)CC2CC(C)(CN2S(=O)(=O)c2ccccc2[N+](=O)[O-])C1 (stereo not given),2.4 µg/mL
3,CSc1nsc(SCC(=O)Nc2cccc(C(=O)O)c2)n1,> 51.2 µg/mL
4,CCOc1ccc(C(=O)CCC(=O)Nc2ncccc2O)cc1,> 47.2 µg/mL
5,NC(=O)C12CCCC(Br)(CCC1)C2,36.2 µg/mL
6,Cc1ccccc1-c1noc(CNC(=O)c2ccco2)n1,> 42.5 µg/mL
7,COC(=O)c1cc(C)ccc1OCc1ccc([N+](=O)[O-])cc1,< 0.6 µg/mL
8,CC1(C)CC(=O)C2=C(C1)OC(N)=C([N+](=O)[O-])C2c1ccc(F)cc1 (stereo not given),> 49.8 µg/mL
9,CC(C)c1ccc(OCC(=O)Nc2ccc3oc(=O)ccc3c2)cc1,< 0.7 µg/mL
10,Cc1c(C(=O)N2CCc3ccccc3C2)oc2ccccc12,7.5 µg/mL
11,COC(=O)C(CC(C)C)NC(=O)c1cccs1 (stereo not given),> 38.3 µg/mL
12,CC1(C)Cc2ccccc2-c2nc(NCCCO)[nH]c(=O)c21,39.5 µg/mL
13,O=C(/C=C/c1cccs1)N1CCN(c2ccccc2)CC1,1.6 µg/mL
14,CCCC(C(=O)Nc1ccncc1)c1ccccc1 (stereo not given),> 38.1 µg/mL
15,CC1(C)CC(=O)C2=C(C1)OC(N)=C(C#N)C2c1ccoc1 (stereo not given),> 42.6 µg/mL
16,COc1ccc(N(C)S(=O)(=O)c2cccc(C(=O)OCC(=O)N3CC(C)CC(C)C3)c2)cc1 (stereo not given),7.3 µg/mL
17,CCc1cc(=O)[nH]c(SC/C=C/c2ccccc2)n1,10.7 µg/mL
18,O=C(O)CCCC(=O)Nc1cc([N+](=O)[O-])ccc1O,35.8 µg/mL
19,O=C1[C@@H]2CSCN2C(=O)CN1Cc1ccc(F)cc1,> 42 µg/mL
20,O=C(Nc1ccc(F)cc1)N1CCCN(c2nccc(C(F)(F)F)n2)CC1,57 µg/mL
21,CN1CCC(N(C)C(=O)CNC(=O)c2ccc(C(C)(C)C)cc2)CC1,39.5 µg/mL
22,CN(Cc1cnccn1)Cc1nc(Cc2ccccc2Cl)no1,43.9 µg/mL
23,C=CCc1cccc2cc(C(=O)NCCOC)c(=O)oc12,41.5 µg/mL
24,O=C(NCc1ccco1)c1ccc2nccnc2c1,> 38 µg/mL

row,SMILES,solubility kinetic
1,O=Cc1sc(N2CCOCC2)nc1-c1ccccc1,4.5 µg/mL
2,COc1cc(CC(=O)Nc2cccc(S(=O)(=O)N(C)c3ccccc3)c2)cc(OC)c1OC,14.1 µg/mL
3,COc1ccc(CNC(=O)CSC(=S)N2CCCC2)cc1,16.2 µg/mL
4,N#C/C(=C\c1ccco1)C(=O)Nc1ccc(S(N)(=O)=O)cc1,3.5 µg/mL
5,O=S(=O)(NC1CCCC1)c1cc(F)ccc1F,> 39.2 µg/mL
6,COCCCNC(=O)c1cc(-c2cccnc2)nc2ccccc12,> 48.2 µg/mL
7,CN1C(=O)/C(=C/c2ccc(OCc3ccc(F)cc3)cc2)N(C)C1=S,< 0.4 µg/mL
8,O=C(NS(=O)(=O)c1ccc(Cl)s1)c1ccccc1,> 45.3 µg/mL
9,CC1CCC(C(C)C)C(=O)/C1=C/c1ccc(N)cc1 (stereo not given),3.3 µg/mL
10,Cc1ccc(S(=O)(=O)CCN2CCN(c3ccccn3)CC2)cc1,> 51.8 µg/mL
11,Cc1c(/C=C2\NC(=O)NC2=O)c2ccccc2n1C,36.9 µg/mL
12,O=C(O)c1cccc(Nc2c3ccccc3nc3ccccc23)c1,2.4 µg/mL
13,COC(=O)c1ccc(NC(=S)Nc2ccc(O)cc2)cc1,22.3 µg/mL
14,O=C1N(Cc2cccc(Cl)c2)C[C@@H]2C[C@@H](c3ccccn3)N3CCC[C@@]123,39 µg/mL
15,CN(C)CCCNC(NC(=O)/C=C/c1ccccc1)C(Cl)(Cl)Cl (stereo not given),44.3 µg/mL
16,c1cncc(Nc2c3ccccc3nc3ccccc23)c1,2 µg/mL
17,O=C(COC(=O)c1ccccc1)NC12CC3CC(CC(C3)C1)C2,9.2 µg/mL
18,C/C(=C\c1ccc(F)cc1)C(=O)c1c(C)cc(C)[nH]c1=O,35.6 µg/mL
19,C=CCN(CC=C)C(=S)NC(=O)c1ccc(OC)cc1,> 43.6 µg/mL
20,CC1CN(S(=O)(=O)c2cccc(C(=O)N3CCC(C(N)=O)CC3)c2)CC(C)O1 (stereo not given),> 61.4 µg/mL
21,O=c1cc(O)c2ccccc2n1Cc1ccccc1F,> 40.4 µg/mL
22,O=c1[nH]c2c(c(=O)[nH]1)CCC2,> 22.8 µg/mL
23,COc1ccc2nc(C)cc(N3CCN(c4ccccc4)CC3)c2c1,2.7 µg/mL
24,CCOc1cnc(C(=O)NNC(=O)c2ccccc2Br)o1,> 53.1 µg/mL
